Each structure is given as a SMILES string.

This series in a line: Pharmacokinetic Measurement in BALB/c Mice (oral gavage, plasma LC-MS/MS). The note with it: parent compound after oral administration, compared with prodrug and Naltrexone from prodrug; FIGS. 1 and 2.

Experimental: This study tested the bioavailability of different test compounds in rats, by oral gavage administration, at prescribed dose levels.
Male BALB/c mice, body weight approximately 1925 g, were purchased from BioLASCO Taiwan Co., Ltd. and kept in the Animal Laboratory of Industrial
LC-MS/MS: ABSCIEX 4000 QTRAP LC-MS/MS System; Polarity: positive mode; Column: XBridge RP18, 3.5 μm, 4.6×20 mm; Flow rate: 0.7 mL/min; Injection volume: 10 μL; Temperature: Room temperature; Running time: 5 min.
Blood aliquots (40 μL) were collected from jugular vein catheterized BALB/c in tubes coated with K2-EDTA, mixed gently, then kept on ice and centrifuged at 7000×g for 15 minutes at 4° C. The plasma was then harvested and kept frozen at −80° C. until further processing.
The plasma samples were processed using acetonitrile precipitation and analyzed by LC-MS/MS. A plasma calibration curve was generated. […]
The spiked plasma samples were processed together with the unknown plasma samples using the same procedure. The processed plasma samples were stored at −80° C. until the LC-MS/MS analysis, at which time peak areas were recorded, and the concentrations of the test compound in the unknown plasma samples were determined using the respective calibration curve. The reportable linear range of the assay was determined, along with the lower limit of quantitation (LOQ). […]

In the case of `O=C1CC[C@@]2(O)[C@H]3Cc4ccc(O)c5c4[C@@]2(CCN3CC2CC2)[C@H]1O5` [Naltrexone], the “concentration in blood with respect to time” value was “raised rapidly and reached the highest level”.

The values are drawn from US11130771B2, “Prodrugs of Naltrexone, Nalmefene and derivatives thereof” (TAIWANJ PHARMACEUTICALS CO., LTD., priority 2018, dated 2021).
